# Data reported in patent publication US9163010B2, “Indolinone protein kinase inhibitors” (Beta Pharma, Inc., priority 2011, dated 2015).
# How the values were obtained:
# VEGFR-1 (Flt-1) = VEGFR-1 (Flt-1) (Homo sapiens (Human), UniProt P17948); assay: Enzymatic activity, VEGFR-1 inhibition in vitro; format: biochemical; conditions: read-out: Enzymatic Activities IC50 VEGFR-1 (Flt-1) or VGFR1 FLT1
# VEGFR-3 (Flt-4) = VEGFR-3 (Flt-4) (Homo sapiens (Human), UniProt P35916); assay: Enzymatic activity, VEGFR-3 inhibition in vitro; format: biochemical
# VEGFR-2 KDR = VEGFR-2 KDR (Homo sapiens (Human), UniProt P35968); assay: Enzymatic activity, VEGFR-2 inhibition in vitro; format: biochemical; conditions: read-out: Enzymatic Activities IC50 VEGFR-2 KDR or VGFR2 KDR
# [1] = cited from earlier work
# VEGFR-2 KDR, sequence (P35968 20-1356): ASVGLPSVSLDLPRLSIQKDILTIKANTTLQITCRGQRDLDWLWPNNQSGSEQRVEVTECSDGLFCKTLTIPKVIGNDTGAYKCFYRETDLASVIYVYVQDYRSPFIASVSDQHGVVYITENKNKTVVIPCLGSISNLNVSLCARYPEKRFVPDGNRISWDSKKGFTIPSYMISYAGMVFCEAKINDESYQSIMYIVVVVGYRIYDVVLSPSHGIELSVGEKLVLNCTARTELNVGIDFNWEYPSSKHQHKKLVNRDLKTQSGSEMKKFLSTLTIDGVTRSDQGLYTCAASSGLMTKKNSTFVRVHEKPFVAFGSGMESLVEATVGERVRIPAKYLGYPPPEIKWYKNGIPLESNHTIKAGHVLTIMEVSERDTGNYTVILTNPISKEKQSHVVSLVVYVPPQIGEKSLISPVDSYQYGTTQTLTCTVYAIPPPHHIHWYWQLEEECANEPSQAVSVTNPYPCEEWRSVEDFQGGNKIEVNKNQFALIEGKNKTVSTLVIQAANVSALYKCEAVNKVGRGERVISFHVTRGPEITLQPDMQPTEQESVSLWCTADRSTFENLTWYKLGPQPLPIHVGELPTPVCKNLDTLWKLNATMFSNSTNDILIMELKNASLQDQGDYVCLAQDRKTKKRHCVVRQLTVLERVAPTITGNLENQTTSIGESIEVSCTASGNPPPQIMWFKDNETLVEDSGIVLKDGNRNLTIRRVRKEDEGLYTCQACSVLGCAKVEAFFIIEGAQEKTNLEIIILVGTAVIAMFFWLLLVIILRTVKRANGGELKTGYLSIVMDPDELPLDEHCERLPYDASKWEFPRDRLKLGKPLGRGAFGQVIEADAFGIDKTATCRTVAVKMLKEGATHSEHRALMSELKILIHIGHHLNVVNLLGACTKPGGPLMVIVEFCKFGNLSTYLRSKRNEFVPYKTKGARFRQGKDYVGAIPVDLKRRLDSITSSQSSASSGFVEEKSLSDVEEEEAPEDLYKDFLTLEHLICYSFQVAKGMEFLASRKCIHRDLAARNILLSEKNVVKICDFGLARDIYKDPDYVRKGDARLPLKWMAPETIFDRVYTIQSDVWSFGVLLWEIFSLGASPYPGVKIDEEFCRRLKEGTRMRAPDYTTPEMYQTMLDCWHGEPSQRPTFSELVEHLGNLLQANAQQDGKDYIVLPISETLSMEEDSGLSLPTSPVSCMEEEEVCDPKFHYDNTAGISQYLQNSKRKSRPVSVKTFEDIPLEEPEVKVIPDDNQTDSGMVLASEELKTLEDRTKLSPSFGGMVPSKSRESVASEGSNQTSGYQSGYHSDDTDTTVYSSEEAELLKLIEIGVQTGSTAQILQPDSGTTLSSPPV
# VEGFR-1 (Flt-1), sequence (P17948 27-1338): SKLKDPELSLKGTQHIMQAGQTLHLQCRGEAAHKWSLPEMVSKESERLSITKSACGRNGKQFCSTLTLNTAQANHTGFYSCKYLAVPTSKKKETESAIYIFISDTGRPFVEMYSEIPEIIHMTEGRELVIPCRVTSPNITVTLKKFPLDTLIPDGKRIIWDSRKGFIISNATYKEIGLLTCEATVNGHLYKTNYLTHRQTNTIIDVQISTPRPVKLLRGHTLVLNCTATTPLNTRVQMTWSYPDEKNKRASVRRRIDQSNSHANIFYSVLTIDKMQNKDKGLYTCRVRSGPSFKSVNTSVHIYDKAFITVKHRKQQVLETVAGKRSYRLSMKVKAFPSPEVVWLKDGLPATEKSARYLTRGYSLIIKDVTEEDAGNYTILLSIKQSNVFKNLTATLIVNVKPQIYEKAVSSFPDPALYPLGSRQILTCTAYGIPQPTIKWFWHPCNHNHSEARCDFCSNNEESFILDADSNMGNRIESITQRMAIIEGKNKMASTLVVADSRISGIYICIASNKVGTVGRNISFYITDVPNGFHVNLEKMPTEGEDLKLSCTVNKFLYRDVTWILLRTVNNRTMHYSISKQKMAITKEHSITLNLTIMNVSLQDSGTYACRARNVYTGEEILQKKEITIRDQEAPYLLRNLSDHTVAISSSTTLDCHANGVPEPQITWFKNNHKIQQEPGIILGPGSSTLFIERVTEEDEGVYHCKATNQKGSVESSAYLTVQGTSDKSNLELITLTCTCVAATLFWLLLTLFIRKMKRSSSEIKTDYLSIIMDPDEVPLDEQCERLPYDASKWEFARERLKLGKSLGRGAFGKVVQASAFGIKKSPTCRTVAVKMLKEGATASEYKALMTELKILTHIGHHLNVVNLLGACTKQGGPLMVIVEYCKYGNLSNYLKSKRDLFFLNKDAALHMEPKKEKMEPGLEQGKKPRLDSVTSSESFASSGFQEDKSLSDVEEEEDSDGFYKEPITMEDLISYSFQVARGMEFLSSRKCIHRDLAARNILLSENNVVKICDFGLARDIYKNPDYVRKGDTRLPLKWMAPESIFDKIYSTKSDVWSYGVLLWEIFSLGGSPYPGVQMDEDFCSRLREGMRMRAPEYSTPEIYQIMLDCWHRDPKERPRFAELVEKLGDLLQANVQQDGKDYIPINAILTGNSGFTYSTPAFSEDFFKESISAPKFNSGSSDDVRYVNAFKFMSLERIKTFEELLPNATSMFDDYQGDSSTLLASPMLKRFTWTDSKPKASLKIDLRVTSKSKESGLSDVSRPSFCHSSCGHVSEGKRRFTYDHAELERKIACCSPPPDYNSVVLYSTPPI
# VEGFR-3 (Flt-4), sequence (P35916 25-1363): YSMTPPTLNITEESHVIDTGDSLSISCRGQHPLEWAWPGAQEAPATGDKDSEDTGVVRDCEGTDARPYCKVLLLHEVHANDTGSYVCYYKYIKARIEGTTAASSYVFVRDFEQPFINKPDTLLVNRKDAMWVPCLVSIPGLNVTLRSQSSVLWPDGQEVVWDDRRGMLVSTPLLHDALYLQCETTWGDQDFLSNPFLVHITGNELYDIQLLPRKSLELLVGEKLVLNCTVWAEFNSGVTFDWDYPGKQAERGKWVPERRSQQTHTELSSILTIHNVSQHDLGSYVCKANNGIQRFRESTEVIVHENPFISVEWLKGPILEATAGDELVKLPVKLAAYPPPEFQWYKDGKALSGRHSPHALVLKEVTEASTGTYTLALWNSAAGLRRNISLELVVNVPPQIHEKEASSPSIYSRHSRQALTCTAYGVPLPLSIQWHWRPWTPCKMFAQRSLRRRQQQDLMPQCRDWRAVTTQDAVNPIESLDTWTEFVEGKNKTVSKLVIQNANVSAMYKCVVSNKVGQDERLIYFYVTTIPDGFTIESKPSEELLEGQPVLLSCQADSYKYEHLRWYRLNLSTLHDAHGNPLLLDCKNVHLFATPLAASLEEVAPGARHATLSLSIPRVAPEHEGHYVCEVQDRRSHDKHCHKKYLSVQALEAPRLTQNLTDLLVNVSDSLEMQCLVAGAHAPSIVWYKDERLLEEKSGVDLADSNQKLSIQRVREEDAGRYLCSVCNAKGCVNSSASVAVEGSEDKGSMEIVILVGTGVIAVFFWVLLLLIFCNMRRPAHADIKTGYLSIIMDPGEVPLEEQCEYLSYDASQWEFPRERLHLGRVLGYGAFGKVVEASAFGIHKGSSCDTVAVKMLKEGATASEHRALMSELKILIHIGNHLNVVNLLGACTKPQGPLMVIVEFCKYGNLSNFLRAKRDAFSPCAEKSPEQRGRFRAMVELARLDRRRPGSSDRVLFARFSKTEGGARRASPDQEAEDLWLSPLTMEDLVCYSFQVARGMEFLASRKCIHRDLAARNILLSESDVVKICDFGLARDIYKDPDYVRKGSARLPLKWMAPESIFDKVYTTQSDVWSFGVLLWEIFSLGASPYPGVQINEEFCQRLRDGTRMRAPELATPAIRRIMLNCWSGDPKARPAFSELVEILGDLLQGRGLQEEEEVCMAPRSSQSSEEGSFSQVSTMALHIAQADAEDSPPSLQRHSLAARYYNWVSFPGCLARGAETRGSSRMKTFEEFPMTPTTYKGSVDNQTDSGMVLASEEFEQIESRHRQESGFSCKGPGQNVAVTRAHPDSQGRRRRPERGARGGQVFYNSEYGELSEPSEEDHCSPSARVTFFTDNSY
IC50 (VEGFR-1 (Flt-1)) [nM],Enzymatic Activities IC50 VEGFR-3 (Flt-4) or VGFR3 FLT4 (VEGFR-3 (Flt-4)),IC50 (VEGFR-2 KDR) [nM],SMILES,Patients in whom dose reductions were required to manage toxicities ([1]; patients studied in RCC) [%],"Serious (grade 3 or 4) adverse events, share of patients ([1]; sunitinib therapy, patients)"
40,No Inhibition,2.5,Cc1[nH]c(/C=C2\C(=O)Nc3ccc(F)cc32)c(C)c1C(=O)N1CCOCCOCCOCC1 [Formula II],–,–
–,–,–,"CCN(CC)CCNC(=O)c1c(C)[nH]c(/C=C2\C(=O)Nc3ccc(F)cc32)c1C [Sunitinib, sunitinib]",50,up to 10%
